{
  "source": "patent US6372746B1",
  "about": "“Derivatives of acyl-piperazinyl-pyrimidines, preparation thereof and application as medicaments” (Laboratorios Del Dr. Esteve, S.A., priority 1997, dated 2002)",
  "key": {"mice [1]": {"test_system": "mice", "assay": "Analgesic activity: protection from contortions induced by phenylbenzoquinone", "format": "in vivo", "conditions": "for DE50 (mg/kg, o.a.): o.a. (orally); for DE50 (mg/kg, o.a.) / DE50 (mg/kg, s.c.): phenylbenzoquinone 5 mg/kg i.p.", "description": "The analgesic activity of the products of the invention have been studied by evaluation of their effect in the test of contortions induced by phenylbenzoquinone in mice, following the method described by Siegmund E., and coworkers (Proc. Soc. Exp. Biol. Med. 1957, 95: 729-731).\nThe mice received the products of the study, a different dosage levels, and one later they received an injections i.p. of 5 mg/kg of phenylbenzoquinone. The portions of the mice were registered for the following fifteen minutes and compared the contortions of the control group. The DE50 (dosage efficacy 50) of the pound of Example 4 is shown."}, "mice [2]": {"test_system": "mice", "assay": "Sleep-inducing activity: capacity to increase the sleep time induced by barbital", "format": "in vivo", "conditions": "for % Activity (sleep) Dosage 100 mg/kg: product 100 mg/Kg i.p., 15 min after barbital 150 mg/Kg i.v.; for DE50: product i.p. 15 min after barbital 150 mg/Kg i.v., dosage efficacy 50", "description": "Sleep-inducing Activity in Mice\nFifteen minutes after the administration of barbital (150 mg/Kg, i.v.), the mice were treated with the product of the study at an initial dose of 100 mg/Kg (i.p.)."}, "mice [3]": {"test_system": "mice", "assay": "General anaesthetic activity in mice, I.V. administration", "format": "in vivo", "conditions": "i.v. caudal vein; for Duration: duration of sleep; for Start / Start (s): start of sleep", "description": "General Anaesthetic Activity\nThe general anaesthetic activity was study in mice, injecting the product of the study in the caudal vein. The start and duration time of sleep were recorded. The results for some of the products of the patent are shown in Table 3 and it can be seen that they show a clear anaesthetic activity with respect to the reference compound (Propofol), with the animals recovering later."}, "mice [4]": {"test_system": "mice", "assay": "Muscular relaxant (miorelaxant) activity in the Irwing mouse test", "format": "in vivo", "conditions": "80 mg/kg i.p.; for % muscular relaxation at a time of: 1 H: 1 H after administration; for % muscular relaxation at a time of: 2 H: 2 H after administration; for % muscular relaxation at a time of: 3 H: 3 H after administration; for % muscular relaxation at a time of: 4 H: 4 H after administration; for % muscular relaxation at a time of: 5 H: 5 H after administration; for % muscular relaxation at a time of: ½ H: ½ H after administration", "description": "Muscular Relaxant Activity\nThe mice received the products under study at a dosage of 80 mg/kg, via I.p., and at different times after administration (½, 1, 2, 3, 4 and 5 hours) the body tone and the abdominal tone was evaluated looking at the muscular tension compared to the control animals."}},
  "note": "Where a name gives a salt, the structure may show the parent alone.",
  "data": [
    {"smiles": "Cc1sc2ccccc2c1Cl", "values": [
      {"measurement": "melting point", "result": "175 to 176", "unit": "°C"}
    ]},
    {"smiles": "COc1ccnc(N2CCN(C(=O)c3ccco3)CC2)n1", "note": "(as salt: HCl) (hydrate or solvate) [Example 2, 2-[4-(2-furylcarbonyl)-1-piperazinyl]-4-methoxypyrimidine chlorohydrate]", "values": [
      {"measurement": "melting point", "result": "162 to 164", "unit": "°C"}
    ]},
    {"smiles": "COc1ccnc(N2CCN(C(=O)c3cccs3)CC2)n1", "note": "(as salt: HCl) (hydrate or solvate) [Example 4, 4-methoxy-2-[4-(2-thienylcarbonyl)-1-piperazinyl]pyrimidine chlorohydrate]", "values": [
      {"measurement": "melting point", "result": "143 to 145", "unit": "°C"}
    ]},
    {"smiles": "COc1ccnc(N2CCN(C(=O)c3ccsc3)CC2)n1", "note": "(as salt: HCl) (hydrate or solvate) [Example 13, 4-methoxy-2-[4-(3-thienylcarbonyl)-1-piperazinyl]pyrimidine chlorohydrate]", "values": [
      {"measurement": "melting point", "result": "154 to 156", "unit": "°C"}
    ]},
    {"smiles": "CC(=O)Oc1ccccc1C(=O)O", "note": "[Aspirin, reference compound]", "values": [
      {"measurement": "DE50 (mg/kg, o.a.)", "setting": "mice [1]", "result": 120, "unit": "mg/kg"},
      {"measurement": "DE50 (mg/kg, s.c.)", "setting": "mice [1]", "result": 84, "unit": "mg/kg"}
    ]},
    {"smiles": "COc1ccnc(N2CCN(C(=O)c3ccco3)CC2)n1", "note": "[Example 2, 2-[4-(2-furylcarbonyl)-1-piperazinyl]-4-methoxypyrimidine chlorohydrate]", "values": [
      {"measurement": "% Activity (sleep) Dosage 100 mg/kg", "setting": "mice [2]", "result": 93, "unit": "%"},
      {"measurement": "DE50", "setting": "mice [2]", "result": 14.4, "unit": "mg/kg"},
      {"measurement": "Duration", "setting": "mice [3]; dosage 40 mg/kg", "result": 0.6, "unit": "min"},
      {"measurement": "Start", "setting": "mice [3]; dosage 40 mg/kg", "result": 12, "unit": "s"},
      {"measurement": "Duration", "setting": "mice [3]; dosage 80 mg/kg", "result": 5.3, "unit": "min"},
      {"measurement": "Start (s)", "setting": "mice [3]; dosage 80 mg/kg", "result": "Immediate"}
    ]},
    {"smiles": "COc1ccnc(N2CCN(C(=O)c3cccs3)CC2)n1", "note": "[Example 4, 4-methoxy-2-[4-(2-thienylcarbonyl)-1-piperazinyl]pyrimidine chlorohydrate]", "values": [
      {"measurement": "% Activity (sleep) Dosage 100 mg/kg", "setting": "mice [2]", "result": 100, "unit": "%"},
      {"measurement": "DE50", "setting": "mice [2]", "result": 8.7, "unit": "mg/kg"},
      {"measurement": "% muscular relaxation at a time of: 1 H", "setting": "mice [4]", "result": 90, "unit": "%"},
      {"measurement": "% muscular relaxation at a time of: 2 H", "setting": "mice [4]", "result": 10, "unit": "%"},
      {"measurement": "% muscular relaxation at a time of: 3 H", "setting": "mice [4]", "result": 0, "unit": "%"},
      {"measurement": "% muscular relaxation at a time of: 4 H", "setting": "mice [4]", "result": 0, "unit": "%"},
      {"measurement": "% muscular relaxation at a time of: 5 H", "setting": "mice [4]", "result": 0, "unit": "%"},
      {"measurement": "% muscular relaxation at a time of: ½ H", "setting": "mice [4]", "result": 100, "unit": "%"},
      {"measurement": "DE50 (mg/kg, o.a.)", "setting": "mice [1]", "result": 72, "unit": "mg/kg"},
      {"measurement": "DE50 (mg/kg, s.c.)", "setting": "mice [1]", "result": 48, "unit": "mg/kg"},
      {"measurement": "analgesic activity compared with aspirin (in words)", "setting": "mice [1]; subcutaneously and orally", "result": "better analgesic activity"},
      {"measurement": "Duration", "setting": "mice [3]; dosage 40 mg/kg", "result": 1.3, "unit": "min"},
      {"measurement": "Start", "setting": "mice [3]; dosage 40 mg/kg", "result": 15, "unit": "s"},
      {"measurement": "Duration", "setting": "mice [3]; dosage 80 mg/kg", "result": 7.4, "unit": "min"},
      {"measurement": "Start (s)", "setting": "mice [3]; dosage 80 mg/kg", "result": "Immediate"}
    ]},
    {"smiles": "COc1ccnc(N2CCN(C(=O)C3CC3)CC2)n1", "note": "[Example 9]", "values": [
      {"measurement": "% Activity (sleep) Dosage 100 mg/kg", "setting": "mice [2]", "result": 67, "unit": "%"},
      {"measurement": "DE50", "setting": "mice [2]", "result": 28.1, "unit": "mg/kg"}
    ]},
    {"smiles": "COc1ccnc(N2CCN(C(=O)c3ccsc3)CC2)n1", "note": "[Example 13, 4-methoxy-2-[4-(3-thienylcarbonyl)-1-piperazinyl]pyrimidine chlorohydrate]", "values": [
      {"measurement": "% Activity (sleep) Dosage 100 mg/kg", "setting": "mice [2]", "result": 77, "unit": "%"},
      {"measurement": "DE50", "setting": "mice [2]", "result": 41.3, "unit": "mg/kg"}
    ]},
    {"smiles": "CCCC(C)(COC(N)=O)COC(N)=O", "note": "[Meprobamate, reference compound]", "values": [
      {"measurement": "% Activity (sleep) Dosage 100 mg/kg", "setting": "mice [2]", "result": 54, "unit": "%"},
      {"measurement": "DE50", "setting": "mice [2]", "result": 84.5, "unit": "mg/kg"}
    ]},
    {"smiles": "CC(C)c1cccc(C(C)C)c1O", "note": "[Propofol, reference compound]", "values": [
      {"measurement": "% muscular relaxation at a time of: 1 H", "setting": "mice [4]", "result": 100, "unit": "%"},
      {"measurement": "% muscular relaxation at a time of: 2 H", "setting": "mice [4]", "result": 70, "unit": "%"},
      {"measurement": "% muscular relaxation at a time of: 3 H", "setting": "mice [4]", "result": 0, "unit": "%"},
      {"measurement": "% muscular relaxation at a time of: 4 H", "setting": "mice [4]", "result": 0, "unit": "%"},
      {"measurement": "% muscular relaxation at a time of: 5 H", "setting": "mice [4]", "result": 0, "unit": "%"},
      {"measurement": "% muscular relaxation at a time of: ½ H", "setting": "mice [4]", "result": 100, "unit": "%"},
      {"measurement": "Duration", "setting": "mice [3]; dosage 80 mg/kg", "result": 0, "unit": "min"},
      {"measurement": "Start (s)", "setting": "mice [3]; dosage 80 mg/kg", "result": "No"},
      {"measurement": "Duration", "setting": "mice [3]; dosage 106 mg/kg", "result": 6.2, "unit": "min"},
      {"measurement": "Start", "setting": "mice [3]; dosage 106 mg/kg", "result": 30, "unit": "s"},
      {"measurement": "Duration", "setting": "mice [3]; dosage 120 mg/kg", "result": 3.9, "unit": "min"},
      {"measurement": "Start", "setting": "mice [3]; dosage 120 mg/kg", "result": 20, "unit": "s"}
    ]}
  ]
}
